Measurements: ChEMBL document CHEMBL1759870, “Identification, structural properties and chelating capacity of miltipolone as a broad-spectrum inhibitor to cancer cells” (Eur J Med Chem, 2011)
Activity calls are given as the source filed them. No cut-off for these calls is given here.

Experiments:
HepG2 [1] = assay: Antiproliferative activity against human HepG2 cells at 2 uM after 96 hrs by MTT assay in presence of manganese ion; assay type: functional, cell-based
NCI-N87 [2] = assay: Antiproliferative activity against human NCI-N87 cells at 2 uM after 96 hrs by MTT assay in presence of ferrous ion; assay type: functional, cell-based
MCF7 [3] = assay: Antiproliferative activity against human MCF7 cells at 2 uM after 96 hrs by MTT assay in presence of cobalt ion; assay type: functional, cell-based
Bel-7402 [4] = assay: Antiproliferative activity against human Bel7402 cells at 2 uM after 96 hrs by MTT assay in presence of zinc ion; assay type: functional, cell-based
Jurkat [5] = assay: Antiproliferative activity against human Jurkat cells at 2 uM after 96 hrs by MTT assay in presence of 1 uM of ferrous ion; assay type: functional, cell-based
A-375 [6] = assay: Antiproliferative activity against human A375 cells at 2 uM after 96 hrs by MTT assay in presence of zinc ion; assay type: functional, cell-based
HT-1080 [7] = assay: Antiproliferative activity against human HT1080 cells at 2 uM after 96 hrs by MTT assay in presence of ferrous ion; assay type: functional, cell-based
HeLa [8] = assay: Antiproliferative activity against human HeLa cells at 2 uM after 96 hrs by MTT assay in presence of cobalt ion; assay type: functional, cell-based
Jurkat [9] = assay: Antiproliferative activity against human Jurkat cells at 2 uM after 96 hrs by MTT assay in presence of cobalt ion; assay type: functional, cell-based
PANC-1 [10] = assay: Antiproliferative activity against human PANC1 cells at 2 uM after 96 hrs by MTT assay in presence of ferric ion; assay type: functional, cell-based
HepG2 [11] = assay: Antiproliferative activity against human HepG2 cells at 2 uM after 96 hrs by MTT assay in presence of cobalt ion; assay type: functional, cell-based
HeLa [12] = assay: Antiproliferative activity against human HeLa cells at 2 uM after 96 hrs by MTT assay in presence of zinc ion; assay type: functional, cell-based
HepG2 [13] = assay: Antiproliferative activity against human HepG2 cells at 2 uM after 96 hrs by MTT assay in presence of zinc ion; assay type: functional, cell-based
[14] = Metal chelating activity of the compound assessed as zinc complex formation in doble-distiled water by UV-vis spectrometry; assay type: functional
PANC-1 [15] = assay: Antiproliferative activity against human PANC1 cells at 2 uM after 96 hrs by MTT assay in presence of zinc ion; assay type: functional, cell-based
Bel-7402 [16] = assay: Antiproliferative activity against human Bel7402 cells at 2 uM after 96 hrs by MTT assay in presence of ferric ion; assay type: functional, cell-based
HeLa [17] = assay: Antiproliferative activity against human HeLa cells at 2 uM after 96 hrs by MTT assay in presence of 1 uM of ferrous ion; assay type: functional, cell-based
HT-1080 [18] = assay: Antiproliferative activity against human HT1080 cells after 96 hrs by MTT assay; assay type: functional, cell-based; settings: HT-1080, 96 h
NCI-N87 [19] = assay: Antiproliferative activity against human NCI-N87 cells at 2 uM after 96 hrs by MTT assay in presence of ferric ion; assay type: functional, cell-based
NCI-N87 [20] = assay: Antiproliferative activity against human NCI-N87 cells at 2 uM after 96 hrs by MTT assay in presence of cobalt ion; assay type: functional, cell-based
MCF7 [21] = assay: Antiproliferative activity against human MCF7 cells at 2 uM after 96 hrs by MTT assay in presence of manganese ion; assay type: functional, cell-based
Jurkat [22] = assay: Antiproliferative activity against human Jurkat cells at 2 uM after 96 hrs by MTT assay in presence of manganese ion; assay type: functional, cell-based
PANC-1 [23] = assay: Antiproliferative activity against human PANC1 cells at 2 uM after 96 hrs by MTT assay in presence of ferrous ion; assay type: functional, cell-based
Bel-7402 [24] = assay: Antiproliferative activity against human Bel7402 cells at 2 uM after 96 hrs by MTT assay in presence of cobalt ion; assay type: functional, cell-based
A549 = assay: Antiproliferative activity against human A549 cells at 2 uM after 96 hrs by MTT assay in presence of ferrous ion; assay type: functional, cell-based
Jurkat [25] = assay: Antiproliferative activity against human Jurkat cells at 2 uM after 96 hrs by MTT assay in presence of ferrous ion; assay type: functional, cell-based
[26] = Metal chelating activity of the compound assessed as ferrous ion complex formation in doble-distiled water by UV-vis spectrometry; assay type: functional
[27] = Metal chelating activity of the compound assessed as cobalt complex formation in doble-distiled water by UV-vis spectrometry; assay type: functional
HepG2 [28] = assay: Antiproliferative activity against human HepG2 cells at 2 uM after 96 hrs by MTT assay in presence of ferrous ion; assay type: functional, cell-based
HT-1080 [29] = assay: Antiproliferative activity against human HT1080 cells at 2 uM after 96 hrs by MTT assay in presence of ferric ion; assay type: functional, cell-based
Bel-7402 [30] = assay: Antiproliferative activity against human Bel7402 cells after 96 hrs by MTT assay; assay type: functional, cell-based; settings: Bel-7402, 96 h
HepG2 [31] = assay: Antiproliferative activity against human HepG2 cells after 96 hrs by MTT assay; assay type: functional, cell-based; settings: HepG2, 96 h
HUVEC = assay: Antiproliferative activity against human HUVEC cells after 96 hrs by MTT assay; assay type: cell-based
Bel-7402 [32] = assay: Antiproliferative activity against human Bel7402 cells at 2 uM after 96 hrs by MTT assay in presence of ferrous ion; assay type: functional, cell-based
[33] = Metal chelating activity of the compound assessed as ferric ion complex formation in doble-distiled water by UV-vis spectrometry; assay type: functional
HT-1080 [34] = assay: Antiproliferative activity against human HT1080 cells at 2 uM after 96 hrs by MTT assay in presence of 1 uM of ferrous ion; assay type: functional, cell-based
MCF7 [35] = assay: Antiproliferative activity against human MCF7 cells after 96 hrs by MTT assay; assay type: functional, cell-based; settings: MCF7, 96 h
A-375 [36] = assay: Antiproliferative activity against human A375 cells at 2 uM after 96 hrs by MTT assay in presence of cobalt ion; assay type: functional, cell-based

Compound: Cc1cc2c(cc(O)c1=O)[C@@]13CCCC(C)(C)[C@@H]1C[C@@H]2OC3 [MILTIPOLONE]
- Activity (HepG2 [1]): Active
- Activity (NCI-N87 [2]): inactive
- Activity (MCF7 [3]): Active
- Activity (Bel-7402 [4]): Active
- Activity (Jurkat [5]): inactive
- Activity (A-375 [6]): Active
- Activity (HT-1080 [7]): inactive
- Activity (HeLa [8]): Active
- Activity (Jurkat [9]): Active
- Activity (PANC-1 [10]): Active
- Activity (HepG2 [11]): Active
- Activity (HeLa [12]): Active
- Activity (HepG2 [13]): Active
- Activity [14]: Active
- Activity (PANC-1 [15]): Active
- Activity (Bel-7402 [16]): Active
- Activity (HeLa [17]): inactive
- IC50 (HT-1080 [18]): 1360 nM
- Activity (NCI-N87 [19]): Active
- Activity (NCI-N87 [20]): Active
- Activity (MCF7 [21]): Active
- Activity (Jurkat [22]): Active
- Activity (PANC-1 [23]): inactive
- Activity (Bel-7402 [24]): Active
- Activity (A549): inactive
- Activity (Jurkat [25]): inactive
- Activity [26]: Active
- Activity [27]: Active
- Activity (HepG2 [28]): inactive
- Activity (HT-1080 [29]): Active
- IC50 (Bel-7402 [30]): 900 nM
- IC50 (HepG2 [31]): 2000 nM
- IC50 (HUVEC): 20000 nM
- Activity (Bel-7402 [32]): inactive
- Activity [33]: Active
- Activity (HT-1080 [34]): inactive
- IC50 (MCF7 [35]): 2000 nM
- Activity (A-375 [36]): Active
